Structures can show the parent of a compound that is named as a salt. Where two headings read alike, the source gives them in different places.
What was measured:
[1] = Example 23: Bz-HC.HCl API single dose intranasal human PK study vs HB API; format: in vivo, humans; conditions: 13.34 mg Bz-HC•HCl API; for AUC(0-t) / AUC(0-inf) / half-life / Cmax: 13.34 mg
Source text: This was a randomized, double blind, single dose, two way crossover, single center study in recreational non-dependent opioid users. Subjects participated in a Screening Phase (Visit 1), Naloxone Challenge Test (Visit 2, Check in), Treatment Phase (Visit 2, inpatient) and Follow up Phase (Visit 3).
A sufficient number of male and female subjects between the ages of 18-55 years were to be screened in order to enroll approximately 30 subjects into the Treatment Phase to ensure 24 completers.

[2] = humans, fasted, oral, equimolar doses
[3] = Example 22: intranasal crushed / oral intact tablets human PK study vs HB/APAP
[4] = Water solubility / feasibility of intranasal or intravenous dosing; conditions: water

## COc1ccc2c3c1O[C@H]1C(OC(=O)c4ccccc4)=CC[C@H]4[C@@H](C2)N(C)CC[C@]314 [Bz-HC•HCl, benzoate-hydrocodone hydrochloride]
[1]; all subjects
  Bz-HC plasma concentrations at 24 hours post-dose (in words): below the limit of quantification
[1]; both sexes, human, plasma, inhaled or intranasal, read-out: Tmax of Bz-HC, Median (Min-Max)
  Tmax: 0.25 h
[1]; both sexes, human, plasma, inhaled or intranasal, n = 22, read-out: AUC0-4 h of Bz-HC, Mean (SD)
  AUC(0-t): 3.14 ng·h/mL
[1]; both sexes, human, plasma, inhaled or intranasal, n = 22, read-out: AUC0-4 h of Bz-HC, Median (Min-Max)
  AUC(0-t): 2.36 ng·h/mL
[1]; both sexes, human, plasma, inhaled or intranasal, n = 22, read-out: AUC0-6 h of Bz-HC, Mean (SD)
  AUC(0-t): 3.4 ng·h/mL
[1]; both sexes, human, plasma, inhaled or intranasal, n = 22, read-out: AUC0-6 h of Bz-HC, Median (Min-Max)
  AUC(0-t): 2.56 ng·h/mL
[1]; both sexes, human, plasma, inhaled or intranasal, n = 22, read-out: AUC0-8 h of Bz-HC, Mean (SD)
  AUC(0-t): 3.51 ng·h/mL
[1]; both sexes, human, plasma, inhaled or intranasal, n = 22, read-out: AUC0-8 h of Bz-HC, Median (Min-Max)
  AUC(0-t): 2.62 ng·h/mL
[1]; both sexes, human, plasma, inhaled or intranasal, n = 22, read-out: AUC0-10 h of Bz-HC, Mean (SD)
  AUC(0-t): 3.56 ng·h/mL
[1]; both sexes, human, plasma, inhaled or intranasal, n = 22, read-out: AUC0-10 h of Bz-HC, Median (Min-Max)
  AUC(0-t): 2.64 ng·h/mL
[1]; both sexes, human, plasma, inhaled or intranasal, n = 22, read-out: AUC0-12 h of Bz-HC, Mean (SD)
  AUC(0-t): 3.59 ng·h/mL
[1]; both sexes, human, plasma, inhaled or intranasal, n = 22, read-out: AUC0-12 h of Bz-HC, Median (Min-Max)
  AUC(0-t): 2.64 ng·h/mL
[1]; both sexes, human, plasma, inhaled or intranasal, n = 22, read-out: AUC0-24 h of Bz-HC, Mean (SD)
  AUC(0-t): 3.61 ng·h/mL
[1]; both sexes, human, plasma, inhaled or intranasal, n = 22, read-out: AUC0-24 h of Bz-HC, Median (Min-Max)
  AUC(0-t): 2.65 ng·h/mL
[1]; both sexes, human, plasma, inhaled or intranasal, n = 22, read-out: AUCinf of Bz-HC, Mean (SD)
  AUC(0-inf): 3.62 ng·h/mL
[1]; both sexes, human, plasma, inhaled or intranasal, n = 22, read-out: AUCinf of Bz-HC, Median (Min-Max)
  AUC(0-inf): 2.65 ng·h/mL
[1]; both sexes, human, plasma, inhaled or intranasal, n = 22, read-out: t1/2 of Bz-HC, Mean (SD) (converted)
  half-life: 1.42 h
[1]; both sexes, human, plasma, inhaled or intranasal, n = 22, read-out: t1/2 of Bz-HC, Median (Min-Max) (converted)
  half-life: 1.3 h
[1]; both sexes, human, plasma, inhaled or intranasal, n = 23, read-out: AUC0-1.5 h of Bz-HC, Mean (SD)
  AUC(0-t): 2.06 ng·h/mL
[1]; both sexes, human, plasma, inhaled or intranasal, n = 23, read-out: AUC0-1.5 h of Bz-HC, Median (Min-Max)
  AUC(0-t): 1.68 ng·h/mL
[1]; both sexes, human, plasma, inhaled or intranasal, n = 23, read-out: AUC0-2 h of Bz-HC, Mean (SD)
  AUC(0-t): 2.39 ng·h/mL
[1]; both sexes, human, plasma, inhaled or intranasal, n = 23, read-out: AUC0-2 h of Bz-HC, Median (Min-Max)
  AUC(0-t): 1.93 ng·h/mL
[1]; both sexes, human, plasma, inhaled or intranasal, n = 23, read-out: AUC0-3 h of Bz-HC, Mean (SD)
  AUC(0-t): 2.79 ng·h/mL
[1]; both sexes, human, plasma, inhaled or intranasal, n = 23, read-out: AUC0-3 h of Bz-HC, Median (Min-Max)
  AUC(0-t): 2.19 ng·h/mL
[1]; both sexes, human, plasma, inhaled or intranasal, read-out: AUC0-0.0833 h of Bz-HC, Mean (SD)
  AUC(0-t): 0.0153 ng·h/mL
[1]; both sexes, human, plasma, inhaled or intranasal, read-out: AUC0-0.5 h of Bz-HC, Mean (SD)
  AUC(0-t): 0.7 ng·h/mL
[1]; both sexes, human, plasma, inhaled or intranasal, read-out: AUC0-0.5 h of Bz-HC, Median (Min-Max)
  AUC(0-t): 0.666 ng·h/mL
[1]; both sexes, human, plasma, inhaled or intranasal, read-out: AUC0-0.75 h of Bz-HC, Mean (SD)
  AUC(0-t): 1.15 ng·h/mL
[1]; both sexes, human, plasma, inhaled or intranasal, read-out: AUC0-0.75 h of Bz-HC, Median (Min-Max)
  AUC(0-t): 0.977 ng·h/mL
[1]; both sexes, human, plasma, inhaled or intranasal, read-out: AUC0-1 h of Bz-HC, Mean (SD)
  AUC(0-t): 1.5 ng·h/mL
[1]; both sexes, human, plasma, inhaled or intranasal, read-out: AUC0-1 h of Bz-HC, Median (Min-Max)
  AUC(0-t): 1.24 ng·h/mL
[1]; both sexes, human, plasma, inhaled or intranasal, read-out: AUClast of Bz-HC, Mean (SD)
  AUC(0-t): 3.24 ng·h/mL
[1]; both sexes, human, plasma, inhaled or intranasal, read-out: AUClast of Bz-HC, Median (Min-Max)
  AUC(0-t): 2.41 ng·h/mL
[1]; both sexes, human, plasma, inhaled or intranasal, read-out: Cmax of Bz-HC, Mean (SD)
  Cmax: 2.41 ng/mL
[1]; both sexes, human, plasma, inhaled or intranasal, read-out: Cmax of Bz-HC, Median (Min-Max)
  Cmax: 2.16 ng/mL
[1]; both sexes, human, plasma, other: intranasal, at 0.25 hour post-dose, read-out: highest mean (SD) plasma concentration of Bz-HC
  concentration at […]: 2.01 ng/mL
[1]; both, human, plasma, inhaled or intranasal, AUC0-[…] of Bz-HC, Mean (SD), read-out: AUC0-0.25 h of Bz-HC, Mean (SD)
  AUC(0-t): 0.213 ng·h/mL
[1]; both, human, plasma, inhaled or intranasal, AUC0-[…] of Bz-HC, Median (Min-Max), read-out: AUC0-0.25 h of Bz-HC, Median (Min-Max)
  AUC(0-t): 0.197 ng·h/mL
[2]
  bioequivalence to Norco (in words): bioequivalent
[3]; human, plasma, inhaled or intranasal
  half-life: 1.11 h
[3]; intranasal crushed Bz-HC.HCl/APAP 13.34/650 mg
  Tlast of Bz-HC (time of the last quantifiable concentration), median: 6.22 h
[4]
  water solubility (in words): much less soluble in water than the hydrocodone bitartrate

Reference: patent publication US10351573B2, “Benzoic acid, benzoic acid derivatives and heteroaryl carboxylic acid conjugates of hydrocodone, prodrugs, methods of making and uses thereof” (KemPharm, Inc., priority 2009, dated 2019)
